For this experiment, the system named is morphine-dependent mice. Kind of experiment: Naloxone-precipitated withdrawal: body temperature and withdrawal signs. To be noted: for Withdrawal, % of control (jumping, shakes, diarrhea) / Δt, °C. (difference in body temperature just prior to naloxone and 30 min. thereafter): Table II, peptide 50 μg per mouse, naloxone 0.1 mg/kg; for Δt, °C. (difference in body temperature just prior to naloxone and 30 min. thereafter): mean ± SD; for ability to block development of physical dependence on morphine: naloxone-precipitated withdrawal, Tables II and III. In kind it is in vivo. The method, then: The mice were randomly divided into two groups. One received SC injections of water (vehicle) while the other received the peptide under investigation (50 μg/mouse on day one). Two hours later the mice were further subdivided and each subgroup was implanted with placebo or morphine pellets. The injections of vehicle and peptide were repeated 24 and 48 hours after the first injection in their respective groups. Morphine pellets containing 75 mg of morphine free base were implanted subcutaneously (SC) between 10-11 A.M. and were removed 3 days later at the same time. The control animals were implanted with placebo pellets. Body temperature and weight were measured daily at 11 A.M. Temperature was measured using a lubricated rectal probe inserted 2.5 cm into the rectum and measured with a telethermometer (Model 43TA Yellow Springs Instrument Co., Yellow Springs, Ohio).
To determine the effects of peptide treatment on the development of physical dependence, the abstinence syndrome was precipitated using the morphine antagonist naloxone (Endo Laboratories Inc., N.Y.) at the appropriate dose (0.1, 0.25, or 0.50 mg/kg) injected intraperitoneally (IP) one hour following removal of morphine and placebo pellets. Pellet removal was performed 24 hours after the last peptide injection. These mice were monitored for changes in body temperature (see above) and body weight at 15 min. intervals for one hour after the naloxone injection. Effects of removing the pellets (withdrawing morphine) were also assessed by utilizing body temperature and weight as physical dependence parameters; however, these measurements were made at 2 hour intervals for 10 hours after the removal of the pellets. Placebo implanted mice were treated in the same manner as the morphine pellet implanted mice.

Non-standard residues stand in square brackets, D forms with d. Residues, ends and D or L forms follow the SMILES beside them. No end group written: not given here. *: point of attachment. pGlu = O=C1CC[C@@H](C(=O)O)N1; Cbz = O=C(OCc1ccccc1)*

As for `CC(C)C[C@@H]1NC(=O)[C@H](C)NC1=O` [Cyclo(Leu--Ala)], the “Withdrawal, % of control (jumping, shakes, diarrhea)” value (shortened to “Withdrawal, % of control”) was 100%; the “Δt, °C. (difference in body temperature just prior to naloxone and 30 min. thereafter)” value is -1.80 ± 0.96 °C.

For `CC(C)C[C@H]1NC(=O)[C@@H]2CCCN2C1=O` [Cyclo(Pro--D-Leu)], the “Withdrawal, % of control” value is recorded as 40%; the “Δt, °C. (difference in body temperature just prior to naloxone and 30 min. thereafter)” value is -0.24 ± 1.06 °C.

As for `O=C1N[C@@H](Cc2ccccc2)C(=O)N2CCC[C@@H]12` [Cyclo(Pro--Phe)], the “Withdrawal, % of control” value amounted to 20%; the “Δt, °C. (difference in body temperature just prior to naloxone and 30 min. thereafter)” value is -0.13 ± 0.55 °C; the “ability to block development of physical dependence on morphine” value was “showed significant activity”.

`CC(C)C[C@H](NC(=O)[C@@H]1CCCN1C(=O)CNC(=O)OCc1ccccc1)C(=O)NCC(=O)O` [Z-Gly--Pro--Leu--Gly--COOH] (Cbz-GPLG-OH): the “Withdrawal, % of control” value was found to be 22%; the “Δt, °C. (difference in body temperature just prior to naloxone and 30 min. thereafter)” value is -0.07 ± 0.72 °C.

As to `CC(C)C[C@H](NC(=O)OCc1ccccc1)C(=O)NCC(N)=O` [Z-Leu--Gly--NH2] (Cbz-Leu-Gly-NH2), the “Withdrawal, % of control” value is 70%; the “Δt, °C. (difference in body temperature just prior to naloxone and 30 min. thereafter)” value is -0.75 ± 0.72 °C.

On to `CC(C)C[C@H](NC(=O)[C@@H]1CCCN1C(=O)OCc1ccccc1)C(=O)NCC(=O)O` [Z-Pro--Leu--Gly--COOH] (Cbz-Pro-Leu-Gly-OH), for which the “Withdrawal, % of control” value was 100%; the “Δt, °C. (difference in body temperature just prior to naloxone and 30 min. thereafter)” value was -1.20 ± 0.39 °C.

For the molecule `CC(C)C[C@H](NC(=O)[C@@H]1CCCN1C(=O)OCc1ccccc1)C(N)=O` [Z-Pro--Leu--NH2] (Cbz-Pro-Leu-NH2), the “Withdrawal, % of control” value is 100%; the “Δt, °C. (difference in body temperature just prior to naloxone and 30 min. thereafter)” value was -0.95 ± 0.21 °C.

With `CC(C)C[C@H](NC(=O)[C@@H]1CCC(=O)N1)C(=O)NCC(N)=O` [[Glu--Leu--Gly--NH2] ([pGlu]-Leu-Gly-NH2), the “Withdrawal, % of control” value was 44%; the “Δt, °C. (difference in body temperature just prior to naloxone and 30 min. thereafter)” value was -0.27 ± 0.72 °C.

Consider Cbz-Ala-Pro, for which the “Withdrawal, % of control” value amounted to 100%; the “Δt, °C. (difference in body temperature just prior to naloxone and 30 min. thereafter)” value was -1.20 ± 0.21 °C.

Regarding Cbz-Pro-Ala, the “Withdrawal, % of control” value worked out at 63%; the “Δt, °C. (difference in body temperature just prior to naloxone and 30 min. thereafter)” value was -0.74 ± 0.94 °C.

As for Cbz-Pro-Gln, the “Withdrawal, % of control” value came out at 0%; the “Δt, °C. (difference in body temperature just prior to naloxone and 30 min. thereafter)” value was “+0.08 ± 0.33 °C”.

As to Cbz-Pro-Glu, the “Withdrawal, % of control” value was found to be 45%; the “Δt, °C. (difference in body temperature just prior to naloxone and 30 min. thereafter)” value is -0.63 ± 0.88 °C.

Consider Cbz-Pro-Gly, for which the “Withdrawal, % of control” value is given as 69%; the “Δt, °C. (difference in body temperature just prior to naloxone and 30 min. thereafter)” value was -0.79 ± 0.78 °C.

Cbz-Pro-Ile: the “Withdrawal, % of control” value is 78%; the “Δt, °C. (difference in body temperature just prior to naloxone and 30 min. thereafter)” value is -1.19 ± 0.91 °C.

As for Cbz-Pro-Met, the “Withdrawal, % of control” value worked out at 0%; the “Δt, °C. (difference in body temperature just prior to naloxone and 30 min. thereafter)” value was “+0.17 ± 0.23 °C”.

Take Cbz-Pro-Ser: the “Withdrawal, % of control” value is 39%; the “Δt, °C. (difference in body temperature just prior to naloxone and 30 min. thereafter)” value is -0.29 ± 0.73 °C.

Turning to Cbz-Pro-Tyr, the “Withdrawal, % of control” value stood at 0%; the “Δt, °C. (difference in body temperature just prior to naloxone and 30 min. thereafter)” value was “+0.13 ± 0.31 °C”.

For Cbz-Pro-Val, the “Withdrawal, % of control” value is reported as 63%; the “Δt, °C. (difference in body temperature just prior to naloxone and 30 min. thereafter)” value is -0.44 ± 0.48 °C.

Take Cbz-[dP]-Leu: the “Withdrawal, % of control” value was determined as 14%; the “Δt, °C. (difference in body temperature just prior to naloxone and 30 min. thereafter)” value is “+0.17 ± 0.71 °C”; the “ability to block development of physical dependence on morphine” value is “exhibited activity”.

(Values after US4416871A, “Inhibition by peptides of tolerance to and physical dependence on morphine” (The United States of America as represented by the …, priority 1982, dated 1983).)
